# Reference: patent US7993670B2, “Medical pad, and method for making and using” (General Wound Kare, Inc., priority 2003, dated 2011)
# System: wound
# Test: Clinical experience: treatment of a patient's wound
# [1] = after a week of daily 1% gentian violet solution
# From the text: A change in the procedure was made. Instead of the direct application of the 1% gentian violet solution, a polyurethane pad, containing a reduced amount of gentian violet, mixed with glycerin and water, and then dried, was applied to the wound covered by the scab. Daily washings were continued and the scab was eventually debrided.
smiles,measurement,setting,value
CN(C)c1ccc(C(=C2C=CC(=[N+](C)C)C=C2)c2ccc(N(C)C)cc2)cc1 [gentian violet],scab formation,"1% gentian violet solution applied daily, wound washed daily with soap and water",scab was formed
same,infection of the wound,[1],no evidence of any infection
same,size of the wound,[1],remained the same
same,staining of the painted wound area,liquid gentian violet solution at 1% strength painted on the wound daily,stained purple
